Experimental data from patent US10640545B2 (THE GOVERNORS OF THE UNIVERSITY OF ALBERTA, priority 2017, dated 2020).
Where a SMILES comes first, the peptide text is derived from it. [ ]: non-standard residue; d: D form. The star is where a group is joined. Phe(4-Br) = N[C@@H](Cc1ccc(Br)cc1)C(=O)O; Palmitoyl = CCCCCCCCCCCCCCCC(=O)*; NMeL = CN[C@@H](CC(C)C)C(=O)O; αMeL = CC(C)C[C@](C)(N)C(=O)O; Nle = CCCC[C@H](N)C(=O)O; Aib = CC(C)(N)C(=O)O

Tests used:
[1] = in vitro; conditions: human, plasma
[2] = test system: anesthetized mice; experiment: Blood pressure assay in anesthetized mice; type: in vivo; conditions: 1.4 μM/kg body weight injected; for blood pressure lowering (hypotensive) effect: SBP, DBP, MABP
Description: Synthetic peptides 8-19 were tested for blood pressure lowering abilities in anesthetized mice. Apelin peptides were injected through […], monitoring blood pressure (BP) and heart rate (HR) over 60 minutes.
Mice were anaesthetized with 1.5% isoflurane/oxygen, and body temperature was monitored and maintained at 36° C. by a heating pad. The aorta was cannulated via the right carotid artery using a PV loop catheter (Model 1.2F from Scisense, Transonic) in order to continuously record arterial blood pressure and heart rate (LabScribe 2.0, Scisense). […] Results are reported as systolic blood pressure (SBP), diastolic blood pressure (DBP), mean arterial blood pressure (MABP) and heart rate (HR).
Apelin peptides 11, 56-59 as well as the KLKB1-cleavage fragments 54 and 55 were tested for blood pressure lowering abilities in anesthetized mice.
Mice were anesthetized with 1.5% isoflurane/oxygen, and body temperature was monitored and maintained at 36° C. by a heating pad. The aorta was cannulated via the right carotid artery using a PV loop catheter (model 1.2F from Scisense, Transonic) in order to continuously record arterial blood pressure and heart rate (LabScribe 2.0, Scisense). Compounds 11, and 54-59 or 55-59 (1.4 μM/kg body weight) or the same volume of saline was injected via the right jugular vein. Results are reported as systolic blood pressure (SBP), diastolic blood pressure (DBP), mean arterial blood pressure (MABP), and heart rate (HR) shown in FIGS. 15A-D.
Apelin peptides were delivered systemically via the right internal jugular vein while blood pressure (BP) and heart rate (HR) were continuously monitored in the aorta cannulated via the right carotid artery. All N-terminally extended apelin peptides, except 58, show pronounced and time-stable blood pressure lowering effects (FIGS. 15a-d). […] This correlates with the results obtained from the Ca^2+ mobilization assay.

Row | Compound | remaining at 0.5 h, 80 µM [1] | remaining at 1 h, 80 µM [1] | effect on heart rate (HR) [2] | blood pressure lowering (hypotensive) effect [2]
1 | CCCC[C@H](NC(=O)[C@@H]1CCCN1C(=O)CNC(=O)[C@H](CCCCN)NC(=O)[C@H](Cc1c[nH]cn1)NC(=O)[C@H](CO)NC(=O)[C@](C)(CC(C)C)NC(=O)[C@H](CCCNC(=N)N)NC(=O)[C@@H]1CCCN1C(=O)[C@H](CCCNC(=N)N)NC(=O)[C@H](CCC(N)=O)NC(=O)[C@H](CCCNC(=N)N)NC(=O)[C@H](CCCNC(=N)N)NC(=O)[C@H](Cc1ccccc1)NC(=O)[C@@H](N)CCCCN)C(=O)NC(C)(C)C(=O)N[C@@H](Cc1ccc(Br)cc1)C(=O)O [Peptide 15] (H-KFRRQRPR[αMeL]SHKGP[Nle][Aib][Phe(4-Br)]-OH; N-terminus and C-terminus assumed) | 77 ± 4% | 48 ± 7% | had an impact on the heart rate | without inducing any vasoactive effects
2 | CCCC[C@H](NC(=O)[C@@H]1CCCN1C(=O)CNC(=O)[C@H](CCCCN)NC(=O)[C@H](Cc1c[nH]cn1)NC(=O)[C@H](CO)NC(=O)[C@H](CC(C)C)NC(=O)[C@H](CCCNC(=N)N)NC(=O)[C@@H]1CCCN1C(=O)[C@H](CCCNC(=N)N)NC(=O)[C@H](CCC(N)=O)NC(=O)[C@@H](N)CCCNC(=N)N)C(=O)NC(C)(C)C(=O)N[C@@H](Cc1ccc(Br)cc1)C(=O)O [Peptide 54] (H-RQRPRLSHKGP[Nle][Aib][Phe(4-Br)]-OH; C-terminus assumed) | – | – | – | inactive or nearly so
3 | CCCC[C@H](NC(=O)[C@@H]1CCCN1C(=O)CNC(=O)[C@H](CCCCN)NC(=O)[C@H](Cc1c[nH]cn1)NC(=O)[C@H](CO)NC(=O)[C@H](CC(C)C)N(C)C(=O)[C@H](CCCNC(=N)N)NC(=O)[C@@H]1CCCN1C(=O)[C@H](CCCNC(=N)N)NC(=O)[C@H](CCC(N)=O)NC(=O)[C@@H](N)CCCNC(=N)N)C(=O)NC(C)(C)C(=O)N[C@@H](Cc1ccc(Br)cc1)C(=O)O [Peptide 55, Arg-Gln-Arg-Pro-Arg-NMeLeu-Ser-His-Lys-Gly-Pro-Nle-Aib-paraBrPhe] (H-RQRPR[NMeL]SHKGP[Nle][Aib][Phe(4-Br)]-OH; C-terminus assumed) | – | – | – | inactive or nearly so
4 | CCCCCCCCCCCCCCCC(=O)N[C@@H](CCCCN)C(=O)N[C@@H](Cc1ccccc1)C(=O)N[C@@H](CCCNC(=N)N)C(=O)N[C@@H](CCCNC(=N)N)C(=O)N[C@@H](CCC(N)=O)C(=O)N[C@@H](CCCNC(=N)N)C(=O)N1CCC[C@H]1C(=O)N[C@@H](CCCNC(=N)N)C(=O)N[C@@H](CC(C)C)C(=O)N[C@@H](CO)C(=O)N[C@@H](Cc1c[nH]cn1)C(=O)N[C@@H](CCCCN)C(=O)NCC(=O)N1CCC[C@H]1C(=O)N[C@@H](CCCC)C(=O)NC(C)(C)C(=O)N[C@@H](Cc1ccc(Br)cc1)C(=O)O [Peptide 56] (Palmitoyl-KFRRQRPRLSHKGP[Nle][Aib][Phe(4-Br)]-OH; C-terminus assumed) | – | – | – | more potent than apelin-17 (2) and apelin-17A2 (5)
